Test [1] deals with Muscarinic acetylcholine Receptor M3 (CHRM3) (Homo sapiens, UniProt P20309). The test can be described thus: cell-based. The conditions noted are these: Calcium Flux, read-out: RC50 (the source's name).
The target in test [2] is T1, Cannabinoid Receptor 1 (CNR1) (Homo sapiens, UniProt P21554).
T1 construct: host or cells: cAMP Hunter cell lines
Nature of the test: SAFETYscan GPCR cAMP. It counts as cell-based.

In test [3] the target is T2, 5-Hydroxy tryptamine (Serotonin) Receptor 1A (HTR1A) (Homo sapiens, UniProt P08908).
T2 construct: host or cells: cAMP Hunter cell lines
The test can be described thus: SAFETYscan GPCR cAMP. In kind it is cell-based.

Test [4] concerns the target Nuclear Hormone Glucocorticoid Receptor (GR) (Homo sapiens, UniProt P04150). Nature of the test: SAFETYscan Nuclear Hormone Receptor assay. It counts as cell-based. The settings on record: read-out: RC50 (the source's name).
Test [5] has as its system calcineurin phosphatase. Nature of the test: PhosphoSens CSox based phosphatase assay. It counts as biochemical. The conditions noted are these: 5 μM HU-MCA-13. The source says: The initial focus was to measure the modulatory activity in vitro of MCA-13 on protein kinases which were reported to be involved in induction of neurite outgrowth.[18],[43] To do this, we took advantage of a powerful method to measure the activity of recombinant protein kinases using a homogeneous and continuous (kinetic) format, where the level of chelation-enhanced fluorescence (CHEF) is directly proportional to the amount of phosphorylated, real-time sensors consisting of sulfonamido-oxine (Sox) chromophore linked to a peptide or protein substrates of selective kinases.[44] […]
Kinase activity was measured continuously using the PhosphoSens®technology (AssayQuant Technologies Inc., Marlborough, MA) according to the manufacturers’ recommendations (http://www.assayquant.com/) . This one-step homogeneous assay use s chelation-enh anced fluorescence via optimized substrate sensors unique for each kinase, containing the unnatural fluorogenic amino-acid Sox. […]
Protein kinase activity was determined in 54 mM HEPES, pH 7.5 1 mM ATP 1.2 mM DTT (none in ASK1) 0.012% Brij-35 1% glycerol 0.2 mg/ml BSA 0.52 mM EGTA (none in assays of CAMK2α, PKCε, PKCι, Calcineurin A/B) 140 µM phosphatidylserine/3.8 µM diacylglycerol (PKCε, PKCι only) 5 ng/µl calmodulin/0.4 mM CaCl2 (CAMK2α, Calcineurin A/B only) 10 mM […]

A value given as a limit tells only on which side of the number the result lay.

Nuclear Hormone Glucocorticoid Receptor (GR), sequence (P04150 whole entry): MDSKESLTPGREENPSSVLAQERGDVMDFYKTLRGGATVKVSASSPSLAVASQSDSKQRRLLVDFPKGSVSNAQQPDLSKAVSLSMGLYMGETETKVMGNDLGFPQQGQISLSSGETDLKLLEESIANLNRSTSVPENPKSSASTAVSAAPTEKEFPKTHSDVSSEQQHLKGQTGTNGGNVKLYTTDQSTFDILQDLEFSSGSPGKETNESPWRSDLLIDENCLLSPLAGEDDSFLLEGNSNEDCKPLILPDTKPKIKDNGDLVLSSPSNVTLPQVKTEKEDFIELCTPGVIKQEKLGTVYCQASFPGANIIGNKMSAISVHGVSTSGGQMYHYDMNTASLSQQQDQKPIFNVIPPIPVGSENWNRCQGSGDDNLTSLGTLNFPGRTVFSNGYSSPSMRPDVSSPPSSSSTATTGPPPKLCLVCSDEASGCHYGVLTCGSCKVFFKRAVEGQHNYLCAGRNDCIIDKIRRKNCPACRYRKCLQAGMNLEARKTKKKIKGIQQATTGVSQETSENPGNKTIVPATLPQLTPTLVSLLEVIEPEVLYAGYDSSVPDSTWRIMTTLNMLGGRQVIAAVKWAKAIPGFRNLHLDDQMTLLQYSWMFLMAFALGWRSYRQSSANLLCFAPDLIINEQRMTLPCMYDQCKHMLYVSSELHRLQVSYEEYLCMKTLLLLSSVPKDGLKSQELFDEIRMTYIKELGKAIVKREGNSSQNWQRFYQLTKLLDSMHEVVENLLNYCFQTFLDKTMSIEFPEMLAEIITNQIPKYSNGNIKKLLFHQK
T1 sequence (P21554 whole entry): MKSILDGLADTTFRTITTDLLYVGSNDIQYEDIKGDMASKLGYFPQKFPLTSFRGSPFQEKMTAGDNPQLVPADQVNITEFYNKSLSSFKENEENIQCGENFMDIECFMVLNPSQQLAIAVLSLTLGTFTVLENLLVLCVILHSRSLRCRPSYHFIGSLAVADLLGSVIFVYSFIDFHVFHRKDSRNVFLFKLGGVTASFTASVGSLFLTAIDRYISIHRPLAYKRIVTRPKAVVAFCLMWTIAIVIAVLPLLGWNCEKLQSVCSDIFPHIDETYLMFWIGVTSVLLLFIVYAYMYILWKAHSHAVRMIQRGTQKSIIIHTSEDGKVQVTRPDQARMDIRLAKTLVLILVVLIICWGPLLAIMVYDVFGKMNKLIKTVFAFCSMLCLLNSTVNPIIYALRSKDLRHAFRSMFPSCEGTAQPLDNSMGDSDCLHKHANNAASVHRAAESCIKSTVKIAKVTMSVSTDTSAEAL
Muscarinic acetylcholine Receptor M3 (CHRM3), sequence (P20309 whole entry): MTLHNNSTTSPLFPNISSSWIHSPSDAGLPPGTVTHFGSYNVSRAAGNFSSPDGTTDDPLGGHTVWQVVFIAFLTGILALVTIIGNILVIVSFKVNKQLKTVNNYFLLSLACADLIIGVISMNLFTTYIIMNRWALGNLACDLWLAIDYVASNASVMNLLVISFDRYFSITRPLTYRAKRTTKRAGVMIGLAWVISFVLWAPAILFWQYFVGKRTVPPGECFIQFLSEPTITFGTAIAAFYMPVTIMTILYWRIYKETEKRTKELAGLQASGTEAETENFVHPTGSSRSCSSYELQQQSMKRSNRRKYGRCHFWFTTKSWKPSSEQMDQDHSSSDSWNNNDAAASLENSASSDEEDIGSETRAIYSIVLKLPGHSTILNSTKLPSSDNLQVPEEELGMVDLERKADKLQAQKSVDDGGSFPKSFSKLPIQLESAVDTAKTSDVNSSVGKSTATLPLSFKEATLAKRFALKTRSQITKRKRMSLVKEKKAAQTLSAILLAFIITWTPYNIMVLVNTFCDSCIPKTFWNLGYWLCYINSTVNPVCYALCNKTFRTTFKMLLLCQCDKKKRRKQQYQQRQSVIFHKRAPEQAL
T2 sequence (P08908 whole entry): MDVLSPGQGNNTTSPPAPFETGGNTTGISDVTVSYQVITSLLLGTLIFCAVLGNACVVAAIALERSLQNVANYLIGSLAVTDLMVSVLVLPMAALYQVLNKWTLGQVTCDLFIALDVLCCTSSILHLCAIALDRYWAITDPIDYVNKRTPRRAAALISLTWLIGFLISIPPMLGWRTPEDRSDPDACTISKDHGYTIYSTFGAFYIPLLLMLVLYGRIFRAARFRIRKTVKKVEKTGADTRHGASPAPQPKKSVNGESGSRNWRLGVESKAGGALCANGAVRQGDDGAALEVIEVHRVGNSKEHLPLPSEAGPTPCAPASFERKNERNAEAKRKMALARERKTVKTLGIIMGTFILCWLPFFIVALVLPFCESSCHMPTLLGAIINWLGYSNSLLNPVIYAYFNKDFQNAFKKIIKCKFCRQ

Regarding `C=CCC1CCCC(CCC(=O)O)C1=C` (stereo not drawn) [HU-MCA-13, 3-(3-allyl-2-methylenecyclohexyl)propanoic acid], the EC50 in test [1] (Agonist), in test [2], in test [3] and in test [4] (Agonist) was above 10 µM in each case. Besides, the IC50 in test [1] (Antagonist), in test [2], in test [3] and in test [4] (Antagonist) was above 10 µM each time. The “effect on phosphatase activity” value in test [5] was “no effects”.
